Values of other authors as cited in patent publication US20050112193A1, “Immediate-release formulations of acid-labile pharmaceutical compositions” (priority 2003, published 2005).
Read-outs that look alike come from different tables or passages of the source.

Tests used:
[1] = for time to undergo 50% degradation: acidic stomach / gastric environment, pH of 1.2 given for pantoprazole sodium and rabeprazole sodium
[2] = in water

| time to undergo 50% degradation [1] | time for 50% of drug to be degraded (t ½) ([1]; pH 1.2) [h] | time for 50% of drug to be degraded (t ½) ([1]; pH 5.1) [h] | time for 50% of drug to be degraded (t ½) ([1]; pH 6) [h] | time for 50% of drug to be degraded (t ½) ([1]; pH 7) [h] | pKa | Solubility ([2]; listed as Omeprazole base) | time for 50% of drug to be degraded (t ½) ([1]; pH 5) [h] | Solubility [2] | Solubility ([2]; listed as Lansoprazole base) | SMILES |
| --- | --- | --- | --- | --- | --- | --- | --- | --- | --- | --- |
| less than 3 minutes | 0.0467 | 1.4 | 7.3 | 39 | 3.9 | slightly soluble | – | – | – | COc1ccc2[nH]c([S+]([O-])Cc3ncc(C)c(OC)c3C)nc2c1 (stereo not drawn) [Omeprazole, 5-methoxy-2-[[(4-methoxy-3,5-dimethyl-2-pyridinyl)methyl]sulfinyl]-1H-benzimidazole] |
| less than 5 minutes | 0.0767 | 4.7 | 21 | 73 | 3 | – | 2.8 | very soluble | – | COc1ccnc(C[S+]([O-])c2nc3ccc(OC(F)F)cc3[nH]2)c1OC (stereo not drawn) [Pantoprazole sodium] |
| less than 1.5 minutes | 0.0217 | 0.12 | – | – | 4.9 | – | – | Very soluble | – | COCCCOc1ccnc(C[S+]([O-])c2nc3ccccc3[nH]2)c1C (stereo not drawn) [Rabeprazole sodium] |
| 2 min | 0.0333 | 1.5 | 6.4 | 35 | 4.1 | – | – | – | very slightly soluble | Cc1c(OCC(F)(F)F)ccnc1C[S+]([O-])c1nc2ccccc2[nH]1 (stereo not drawn) [Lansoprazole] |
